Key:
Assay type in all cases: in vivo
soybean (Glycine max) = assay: Test C
[1] = test system: fall panicum (Panicum dichotomiflorum); assay: Test C; parameters: key: 0 was no effect; 100 was complete control
[2] = test system: eastern black nightshade (Solanum ptycanthum); assay: Test C; parameters: key: 0 was no effect; 100 was complete control
[3] = test system: barnyardgrass (Echinochloa crus-galli); assay: Test C
[4] = test system: large crabgrass (Digitaria sanguinalis); assay: Test C; parameters: key: 0 was no effect; 100 was complete control
[5] = test system: velvetleaf (Abutilon theophrasti); assay: Test C; parameters: key: 0 was no effect; 100 was complete control
[6] = test system: sandbur (Cenchrus echinatus); assay: Test E pre-/postemergence/post directed; parameters: key: 0 is no injury; 100 is complete control
Summary of the method: (§1)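 Injury was scored visually on a 0 to 100 scale (100 = complete control) 13 to 21 days after treatment of greenhouse-grown plants. Test chemicals, in a surfactant-containing non-phytotoxic solvent, were sprayed onto soil within a day of planting, onto plants at the two to four leaf stage, or directed at the base of the plants.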

[7] = test system: purple nutsedge (Cyperus rotundus); assay: Test E pre-/postemergence/post directed; parameters: key: 0 is no injury; 100 is complete control
Summary of the method: as §1

[8] = test system: wild poinsettia (Euphorbia heterophylla); assay: Test C; parameters: key: 0 was no effect; 100 was complete control
[9] = test system: ladysthumb smartweed (Polygonum persicaria); assay: Test C
[10] = test system: hairy beggarticks (Bidens pilosa); assay: Test C
[11] = test system: ivyleaf morningglory (Ipomoea hederacea); assay: Test C; parameters: key: 0 was no effect; 100 was complete control
[12] = test system: common ragweed (Ambrosia elatior); assay: Test C
[13] = test system: arrowleaf sida (Sida rhombifolia); assay: Test C

Cc1cnc(-c2ccc(C(F)(F)F)cc2)nc1Cn1ccc(C(F)(F)F)n1 [compound 9]
Plant response rating, Soybean (soybean (Glycine max); POSTEMERGENCE, Rate 35 g/ha): 40 | Plant response rating, Soybean (soybean (Glycine max); POSTEMERGENCE, Rate 70 g/ha): 50 | Plant response rating, Soybean (soybean (Glycine max); POSTEMERGENCE, Rate 140 g/ha): 50 | Plant response rating, Soybean (soybean (Glycine max); PREEMERGENCE, Rate 35 g/ha): 20 | Plant response rating, Soybean (soybean (Glycine max); PREEMERGENCE, Rate 70 g/ha): 20 | Plant response rating, Soybean (soybean (Glycine max); PREEMERGENCE, Rate 140 g/ha): 25 | Plant response rating, Fall panicum ([1]; POSTEMERGENCE, Rate 35 g/ha): 5 | Plant response rating, Fall panicum ([1]; POSTEMERGENCE, Rate 70 g/ha): 20 | Plant response rating, Fall panicum ([1]; POSTEMERGENCE, Rate 140 g/ha): 30 | Plant response rating, Fall panicum ([1]; PREEMERGENCE, Rate 35 g/ha): 85 | Plant response rating, Fall panicum ([1]; PREEMERGENCE, Rate 70 g/ha): 90 | Plant response rating, Fall panicum ([1]; PREEMERGENCE, Rate 140 g/ha): 100 | Plant response rating, E. blacknightsh ([2]; POSTEMERGENCE, Rate 35 g/ha): 100 | Plant response rating, E. blacknightsh ([2]; POSTEMERGENCE, Rate 140 g/ha): 100 | Plant response rating, E. blacknightsh ([2]; PREEMERGENCE, Rate 35 g/ha): 95 | Plant response rating, E. blacknightsh ([2]; PREEMERGENCE, Rate 70 g/ha): 100 | Plant response rating, E. blacknightsh ([2]; PREEMERGENCE, Rate 140 g/ha): 95 | Plant response rating, Barnyardgrass ([3]; POSTEMERGENCE, Rate 35 g/ha): 10 | Plant response rating, Barnyardgrass ([3]; POSTEMERGENCE, Rate 70 g/ha): 25 | Plant response rating, Barnyardgrass ([3]; POSTEMERGENCE, Rate 140 g/ha): 25 | Plant response rating, Barnyardgrass ([3]; PREEMERGENCE, Rate 35 g/ha): 10 | Plant response rating, Barnyardgrass ([3]; PREEMERGENCE, Rate 70 g/ha): 50 | Plant response rating, Barnyardgrass ([3]; PREEMERGENCE, Rate 140 g/ha): 50 | Plant response rating, Large crabgrass ([4]; POSTEMERGENCE, Rate 35 g/ha): 20 | Plant response rating, Large crabgrass ([4]; POSTEMERGENCE, Rate 70 g/ha): 40 | Plant response rating, Large crabgrass ([4]; POSTEMERGENCE, Rate 140 g/ha): 50 | Plant response rating, Large crabgrass ([4]; PREEMERGENCE, Rate 35 g/ha): 95 | Plant response rating, Large crabgrass ([4]; PREEMERGENCE, Rate 70 g/ha): 100 | Plant response rating, Large crabgrass ([4]; PREEMERGENCE, Rate 140 g/ha): 100 | Plant response rating, Velvetleaf ([5]; POSTEMERGENCE, Rate 35 g/ha): 10 | Plant response rating, Velvetleaf ([5]; POSTEMERGENCE, Rate 70 g/ha): 70 | Plant response rating, Velvetleaf ([5]; POSTEMERGENCE, Rate 140 g/ha): 90 | Plant response rating, Velvetleaf ([5]; PREEMERGENCE, Rate 35 g/ha): 75 | Plant response rating, Velvetleaf ([5]; PREEMERGENCE, Rate 70 g/ha): 95 | Plant response rating, Velvetleaf ([5]; PREEMERGENCE, Rate 140 g/ha): 100 | Plant response rating, Sandbur ([6]; POSTEMERGENCE, Rate 125 g/ha): 0 | Plant response rating, Sandbur ([6]; POSTEMERGENCE, Rate 250 g/ha): 0 | Plant response rating, Sandbur ([6]; PREEMERGENCE, Rate 32 g/ha): 0 | Plant response rating, Sandbur ([6]; PREEMERGENCE, Rate 64 g/ha): 0 | Plant response rating, Purple nutsedge ([7]; POSTEMERGENCE, Rate 125 g/ha): 0 | Plant response rating, Purple nutsedge ([7]; POSTEMERGENCE, Rate 250 g/ha): 0 | Plant response rating, Purple nutsedge ([7]; PREEMERGENCE, Rate 32 g/ha): 0 | Plant response rating, Purple nutsedge ([7]; PREEMERGENCE, Rate 64 g/ha): 0 | Plant response rating, Purple nutsedge ([7]; PREEMERGENCE, Rate 125 g/ha): 0 | Plant response rating, Purple nutsedge ([7]; PREEMERGENCE, Rate 250 g/ha): 0 | Plant response rating, Wild poinsettia ([8]; POSTEMERGENCE, Rate 35 g/ha): 90 | Plant response rating, Wild poinsettia ([8]; POSTEMERGENCE, Rate 70 g/ha): 90 | Plant response rating, Wild poinsettia ([8]; POSTEMERGENCE, Rate 140 g/ha): 100 | Plant response rating, Wild poinsettia ([8]; PREEMERGENCE, Rate 35 g/ha): 10 | Plant response rating, Wild poinsettia ([8]; PREEMERGENCE, Rate 70 g/ha): 50 | Plant response rating, Wild poinsettia ([8]; PREEMERGENCE, Rate 140 g/ha): 50 | Plant response rating, Ladysthumb ([9]; POSTEMERGENCE, Rate 35 g/ha): 20 | Plant response rating, Ladysthumb ([9]; POSTEMERGENCE, Rate 70 g/ha): 30 | Plant response rating, Ladysthumb ([9]; POSTEMERGENCE, Rate 140 g/ha): 30 | Plant response rating, Ladysthumb ([9]; PREEMERGENCE, Rate 35 g/ha): 35 | Plant response rating, Ladysthumb ([9]; PREEMERGENCE, Rate 70 g/ha): 85 | Plant response rating, Ladysthumb ([9]; PREEMERGENCE, Rate 140 g/ha): 90 | Plant response rating, H. beggarticks ([10]; POSTEMERGENCE, Rate 35 g/ha): 65 | Plant response rating, H. beggarticks ([10]; POSTEMERGENCE, Rate 70 g/ha): 70 | Plant response rating, H. beggarticks ([10]; POSTEMERGENCE, Rate 140 g/ha): 80 | Plant response rating, H. beggarticks ([10]; PREEMERGENCE, Rate 35 g/ha): 85 | Plant response rating, H. beggarticks ([10]; PREEMERGENCE, Rate 70 g/ha): 85 | Plant response rating, H. beggarticks ([10]; PREEMERGENCE, Rate 140 g/ha): 85 | Plant response rating, I. morningglory ([11]; POSTEMERGENCE, Rate 35 g/ha): 50 | Plant response rating, I. morningglory ([11]; POSTEMERGENCE, Rate 70 g/ha): 60 | Plant response rating, I. morningglory ([11]; POSTEMERGENCE, Rate 140 g/ha): 100 | Plant response rating, I. morningglory ([11]; PREEMERGENCE, Rate 35 g/ha): 20 | Plant response rating, I. morningglory ([11]; PREEMERGENCE, Rate 70 g/ha): 50 | Plant response rating, I. morningglory ([11]; PREEMERGENCE, Rate 140 g/ha): 50 | Plant response rating, Common ragweed ([12]; POSTEMERGENCE, Rate 70 g/ha): 30 | Plant response rating, Common ragweed ([12]; POSTEMERGENCE, Rate 140 g/ha): 10 | Plant response rating, Common ragweed ([12]; PREEMERGENCE, Rate 35 g/ha): 80 | Plant response rating, Common ragweed ([12]; PREEMERGENCE, Rate 70 g/ha): 95 | Plant response rating, Common ragweed ([12]; PREEMERGENCE, Rate 140 g/ha): 75 | Plant response rating, Arrowleaf sida ([13]; POSTEMERGENCE, Rate 35 g/ha): 80 | Plant response rating, Arrowleaf sida ([13]; POSTEMERGENCE, Rate 70 g/ha): 90 | Plant response rating, Arrowleaf sida ([13]; POSTEMERGENCE, Rate 140 g/ha): 90 | Plant response rating, Arrowleaf sida ([13]; PREEMERGENCE, Rate 35 g/ha): 90 | Plant response rating, Arrowleaf sida ([13]; PREEMERGENCE, Rate 70 g/ha): 95 | Plant response rating, Arrowleaf sida ([13]; PREEMERGENCE, Rate 140 g/ha): 95
